Measurements taken from the METLIN SMRT retention time set (Domingo-Almenara et al. 2019).

Assay: gradient 5% acetonitrile 3 min, to 50% in 2 min, to 85% in 15 min, held 3 min, 100 µL/min
Details: column: Zorbax Extend-C18 2.1 x 50 mm; eluents: water / acetonitrile, 0.1% formic acid
Method in brief: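 Values are retention times taken from adduct peaks that software picked and an analyst inspected. The pure standards were run as mixtures of ~100 molecules on HPLC linked to a quadrupole time-of-flight mass spectrometer, in positive and negative ionization mode. A Zorbax Extend-C18 column (2.1 × 50 mm, 1.8 μm) was used at 100 μL/min with water and acetonitrile, each including 0.1% formic acid.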

| RP-LC retention time [s] | SMILES |
| --- | --- |
| 1150 | Cc1ccc(-n2c(=O)c3sccc3n(Cc3nc(-c4ccc(Cl)c(F)c4)no3)c2=O)cc1 |
| 613 | CCc1nnc2nc(N3CCN(C(=O)Cc4cccs4)CC3)cc(C)n12 |
| 598 | O=C(NCC1CCCO1)c1ccc2c(c1)NC(=O)C1CCC(=O)N21 (configuration not stated) |
| 560 | Cc1nnc(CNC(=O)Cc2csc(Nc3ncccn3)n2)o1 |
| 809 | CN(C)C(=O)c1csc(S(=O)(=O)N2CCC(C(=O)N3CCc4ccccc43)CC2)c1 |
| 1240 | O=S(=O)(c1ccc2nc(N3CCN(c4cccc(Cl)c4)CC3)ccc2c1)N1CCCCC1 |
| 658 | O=C(Nc1ccc(N2CCOCC2)cc1)c1cccs1 |
| 546 | CCC(=O)N1CCN(c2nc3c(s2)CC(C(=O)NC(CC)CC)CC3)CC1 (configuration not stated) |
| 568 | COc1ccccc1CN1CN=C(Nc2nc(C)c3ccc(C)cc3n2)NC1 |
| 866 | O=C1CCCN1CN(C(=O)c1ccccc1F)c1nc2ccccc2s1 |
| 792 | Cc1ccc(C(=O)N2CCCCCCNC(=O)[C@@H]3CCC[C@@H]32)s1 |
| 759 | O=C(CCSc1ccccc1)NCCn1cnc(-c2ccc(F)cc2)cc1=O |
| 736 | COc1cccc(CNC(=O)C2CCCN(c3ncnc4c3nc3n4CCCCC3)C2)c1 (configuration not stated) |
| 1080 | COc1cccc(-c2ccc(NC(=O)C3=C(C(=O)O)CCC3)c(F)c2)c1 |
| 571 | O=C1C(N2CCN(S(=O)(=O)c3ccccc3F)CC2)CCN1Cc1ccccn1 (configuration not stated) |
| 602 | CC(C)n1c(N2CCN(C(=O)c3cccnc3)CC2)cc(=O)n(C(C)C)c1=O |
| 943 | Cn1c(=O)c2c(C(=O)N3CCN(c4cccc(C(F)(F)F)c4)CC3)cc(=O)n(C)c2n(C)c1=O |
| 953 | CCN(Cc1ccccc1)C(=O)C1CCN(S(=O)(=O)c2ccc3c(c2)sc(=O)n3CC)CC1 |
| 568 | O=[N+]([O-])c1ccc(S(=O)(=O)N2CCN(c3ccc(NCC4CCCO4)nn3)CC2)cc1 (configuration not stated) |
| 963 | COc1ccc(Nc2nc(-c3nnn(-c4cccc(Cl)c4)c3C)ns2)cc1OC |
| 684 | CCOC(=O)C1CCCN(C(=O)Cn2cnc(-c3cccs3)cc2=O)C1 (configuration not stated) |
| 653 | CCn1ccc2cc(S(=O)(=O)N3CCC(C(=O)NCc4cccnc4)CC3)ccc21 |

| RP-LC retention time [s] | SMILES |
| --- | --- |
| 808 | CCn1cc(S(=O)(=O)NC2CCCC2)c2cccnc21 |
| 774 | COC(=O)c1ccc2c(=O)n(CCc3ccccc3)c(N3CCC(C(N)=O)CC3)nc2c1 |
| 603 | CNC(=O)[C@@H]1C[C@H](Oc2ccccc2)CN1C(=O)COc1ccccc1 |
| 684 | O=C(c1ccc(C(F)(F)F)cc1)N1CCN(c2nc(CN3CCCCC3)cs2)CC1 |
| 747 | Cc1ccc(S(=O)(=O)N2CCC3(CC2)NCCN=C3NCc2ccccc2F)c(C)c1 |
| 699 | CNC(=O)c1cc2n(n1)CCCN(Cc1ccc(C)cc1)C2=O |
| 1100 | O=c1ccc(-c2ccc3c(c2)OCO3)nn1Cc1nc(-c2ccc(F)c(Br)c2)no1 |
| 627 | COCCCNC(=O)C1CCN(S(=O)(=O)c2ccc3c(c2)NC(=O)CO3)CC1 |
| 968 | CCc1nnc(-c2cccnc2N2CCN(C(=O)Nc3cc(Cl)cc(Cl)c3)CC2)o1 |
| 618 | Cc1cnc(C(=O)N(C)C2CCc3nn(CC4CC4)c(=O)n3CC2)cn1 (configuration not stated) |
| 907 | Cn1ncc2c(N3CCSCC3)nc(C(=O)NCc3ccc(C(F)(F)F)cc3)nc21 |
| 926 | CC(C)n1cc(S(=O)(=O)NCc2cccc(F)c2)c2cccnc21 |
| 672 | O=C(CSc1nnc(CNC(=O)c2ccc(F)cc2)o1)NCc1ccc2c(c1)OCO2 |
| 1310 | O=C(N1CC(Oc2cccc(-c3nc(-c4ccccc4)no3)c2)C1)C1(c2ccccc2)CC1 |
| 892 | Cc1nc(-c2csc(S(=O)(=O)N3CCCC(C(=O)Nc4ccc(F)cc4C)C3)c2)no1 (configuration not stated) |
| 572 | CN1CCN(C(=O)c2cc(-c3cccs3)n(CC(=O)NCc3ccco3)n2)CC1 |
| 694 | COC(=O)c1ccc(NC(=O)N(C)Cc2cc(=O)[nH]c3ccccc23)cc1 |
| 1170 | COc1cccc(C(=O)COc2cc(O)c3c(=O)cc(-c4ccccc4)oc3c2)c1 |
| 678 | COC(=O)CNC(=O)N1CCCC1c1ccc(OC)cc1 (configuration not stated) |
| 756 | CCN1C(=O)c2c(C(=O)NCCc3ccccc3)ncn2CC1(C)C(=O)NC1CCCC1 (configuration not stated) |
| 812 | CCn1cc(CCNC(=O)Nc2ccc(C)cc2Cl)c2cccnc21 |
| 909 | Cc1ccc(CNC(=O)C2=C3CCCN3c3ccc(F)cc3S2(=O)=O)cc1 |

| RP-LC retention time [s] | SMILES |
| --- | --- |
| 818 | Cc1cc(C)n(Cc2nc(-c3ccc(NC(=O)c4ccco4)cc3)oc2C)n1 |
| 666 | CC(C)C(NC(=O)c1ccsc1)C(=O)Nc1nc2ccccc2[nH]1 (configuration not stated) |
| 556 | Cc1cnc(C2CCC2)n1CCNC(=O)c1nccn1C |
| 784 | CN(C)C(=O)c1ccc2c(c1)N(CC(=O)N1CCN(c3ccccn3)CC1)C(=O)CO2 |
| 952 | CCCN1C(=O)c2cc(S(=O)(=O)NCc3ccco3)ccc2Oc2cccnc21 |
| 1200 | Cc1cc(C(=O)N(CCn2nc(C)cc2C)c2nc3c(C(C)C)cccc3s2)on1 |
| 793 | CSc1ccc(-c2nc3cnccn3c2Nc2cccc(C(=O)NCc3ccco3)c2)cc1 |
| 657 | O=C(NC1CCSC1=O)c1ccc(-n2cccn2)nn1 (configuration not stated) |
| 603 | CCn1c(SCC(=O)N2CCC(C(N)=O)CC2)nnc1-c1sc2ncccc2c1N |
| 766 | COc1ccc(Cl)cc1NC(=O)CSc1ccc2nnc(-c3cccs3)n2n1 |
| 615 | CCOCCCNC(=O)CCc1cc2cc(OC)ccc2[nH]c1=O |
| 1030 | Cc1nn(-c2ccc(-c3ccccc3)nn2)c(C)c1S(=O)(=O)NCc1ccccc1 |
| 799 | CCC(C)NC(=O)c1ccc(-c2csc(C)n2)cc1 (configuration not stated) |
| 913 | O=C(NCc1ccccc1Cl)C1=C2CCCN2c2ccc(F)cc2S1(=O)=O |
| 684 | Cc1ccn2c(NC(=O)c3ccc([N+](=O)[O-])cc3)c(-c3ccc(F)cc3)nc2c1 |
| 1250 | Cc1c(Cl)cccc1S(=O)(=O)N1CCc2nc(-c3ccc(F)cc3)ncc2C1 |
| 668 | COc1cc(NC(=O)C2=C(C)OCCS2)c(Cl)cc1C(=O)N1CCN(c2ccccn2)CC1 |
| 726 | CCc1ccc(-c2cc3c(=O)n(Cc4noc(CN5CCCC(C)C5)n4)ccn3n2)cc1 (configuration not stated) |
| 1310 | Cc1ccc(Sc2nccnc2N2CCC(C(=O)N3CCN(c4cccc(C)c4)CC3)CC2)cc1 |
| 1010 | CCS(=O)(=O)Nc1ccc(-c2noc(COc3ccc(Cl)cc3)n2)cc1 |
| 1020 | CCOC(=O)C1CCCN(S(=O)(=O)c2cc(-c3nnc(-c4ccccc4)o3)ccc2OC)C1 (configuration not stated) |
| 785 | O=c1c2nc(-c3ccc4c(c3)OCO4)cn2ccn1-c1cccc(F)c1 |

| RP-LC retention time [s] | SMILES |
| --- | --- |
| 648 | Cc1nc(C(=O)Nc2ccccc2)c(C)n1C1CCN(S(C)(=O)=O)CC1 |
| 775 | CCc1noc(NC(C)=O)c1-c1ccc(OC)c(S(=O)(=O)Nc2ccc(OC)c(Cl)c2)c1 |
| 788 | CC1=C(c2ccc(C(C)C)cc2)S(=O)(=O)N=C1N1CCC(NC(=O)C2CCOC2)CC1 (configuration not stated) |
| 580 | Cc1cc(N2CCCCC2)nc(NCCNC(=O)Cc2noc3ccccc23)n1 |
| 808 | O=C(Cn1ccn2nc(-c3ccccc3)c(CO)c2c1=O)Nc1ccccc1Cl |
| 469 | Nc1nc(SCC(=O)NCC2CCCO2)n[nH]1 (configuration not stated) |
| 735 | COc1cc(OC)c(NC(=O)CCSc2nc3c(=O)n(C)c(=O)n(C)c3n2C)cc1Cl |
| 867 | COc1cccc(CNC(=O)C2(c3ccc(NS(C)(=O)=O)cc3)CCCCC2)c1 |
| 607 | COc1ccc(CN2CCC3(CC2)CC(C)(O)CCO3)c(OC)c1 (configuration not stated) |
| 759 | CC(C)(C)c1cc(NC(=O)COc2ccccc2F)n(CCO)n1 |
| 715 | COC(=O)c1c(C)[nH]c(C(=O)N2CCC(CC(=O)NCc3ccc(OC)cc3)CC2)c1C |
| 690 | Cc1ccc(-c2noc3ncnc(N4CCN(c5ccccn5)CC4)c23)cc1 |
| 798 | O=C(Cc1nnc2cc(-c3nc(C4CC4)no3)ccn12)NCc1ccc(Cl)cc1 |
| 944 | CCOC(=O)c1ccc(NC(=O)NCc2noc3ccc(C)cc23)cc1 |
| 666 | CCCNC(=O)C1CCN(c2ccc(SCC(=O)Nc3ccccc3C(=O)OC)nn2)CC1 |
| 638 | O=C(CCc1c(-c2ccc(Cl)cc2)nc2ccccn12)NC1CCCC1 |
| 616 | CC(C)NC(=O)c1ccc2c(c1)CC(=O)N2C |
| 1090 | COc1ccc(OC)c(C(O)Cn2ccn3nc(-c4ccc(C(C)C)cc4)cc3c2=O)c1 (configuration not stated) |
| 701 | CSc1ccc(CNC(=O)C2CCCN(C(=O)c3[nH]c(C)cc3C)C2)cc1 (configuration not stated) |

| SMILES | RP-LC retention time [s] |
| --- | --- |
| CC1=C2C(=O)[C@H]3[C@@H](CC=C4C[C@@H](O)CC[C@@]43C)[C@@H]2CC[C@]12O[C@@H]1C[C@H](C)CN[C@H]1C2C (some centres not stated) | 699 |
| CC(C)NC(=O)N1[C@H]2CC[C@@H]1c1cnc(-c3ccc(F)cc3)nc1C2 | 839 |
